Literature values, collected in US8524769B2, “Process for producing a fraction enriched up to 100% of 3-O-acetyl-11-keto-beta-boswellic acid from an extract containing a mixture of boswellic acids” (Laila Impex, priority 2002, dated 2013).

Tested on: 5-lipoxygenase (5-LO)
Details: compared among all six boswellic acids; Sailer et al., British J. Pharmacology 117, 615-618, 1996

Chain of 5-lipoxygenase (5-LO) (P09917 whole entry, species assumed): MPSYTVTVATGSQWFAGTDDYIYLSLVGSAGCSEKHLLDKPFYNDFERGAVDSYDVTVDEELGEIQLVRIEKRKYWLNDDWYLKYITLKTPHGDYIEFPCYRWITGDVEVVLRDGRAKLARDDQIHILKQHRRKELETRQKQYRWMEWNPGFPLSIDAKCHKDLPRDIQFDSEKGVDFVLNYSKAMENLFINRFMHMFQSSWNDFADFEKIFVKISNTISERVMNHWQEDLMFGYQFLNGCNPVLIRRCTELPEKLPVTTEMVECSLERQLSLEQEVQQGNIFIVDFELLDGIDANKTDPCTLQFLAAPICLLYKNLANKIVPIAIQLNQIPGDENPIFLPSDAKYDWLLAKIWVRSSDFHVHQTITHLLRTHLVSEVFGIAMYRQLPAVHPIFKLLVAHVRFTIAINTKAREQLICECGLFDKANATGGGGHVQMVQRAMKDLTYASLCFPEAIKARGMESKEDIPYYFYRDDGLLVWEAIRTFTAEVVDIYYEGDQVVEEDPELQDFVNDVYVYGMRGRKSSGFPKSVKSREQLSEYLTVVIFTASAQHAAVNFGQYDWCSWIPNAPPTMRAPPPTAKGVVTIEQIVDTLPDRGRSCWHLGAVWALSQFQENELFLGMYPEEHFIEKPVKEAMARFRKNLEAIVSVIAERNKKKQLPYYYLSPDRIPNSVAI

Substance: 3-O-acetyl-11-keto-β-boswellic acid [AKBA]
- inhibitory activity on 5-lipoxygenase: most pronounced inhibitory activity
